For orientation: half-life means the time needed for the level to fall by half in the phase considered.

Here are results for three molecules from US20050004118A1, “Prodrugs of non-steroidal anti-inflammatory and carboxylic acid containing compounds” (priority 2000, published 2005).

Data set [1] is described as follows: stability against chemical hydrolysis in pH solutions. Format: physicochemical.
Data set [2] can be described thus: half-life of prodrug ester in plasma (hydrolysis by plasma enzymes). The note with it: in plasma at physiologic pH.
A further data set relates to plasma enzymes. The description is as above. The note with it: plasma.
The conditions of data set [3]: cited from earlier work.

Where two headings read alike, the source gives them in different places.

With `O=C(Cc1ccccc1Nc1c(Cl)cccc1Cl)OCCOC(=O)N1CCOCC1` [2-[(2,6-Dichlorophenyl])amino]benzene-acetic acid morpholinocarbonyloxyethyl ester], the “half life in a 1.0 pH solution” value in data set [1] (1.0 pH solution) came out at 8 hours. For the same molecule, in data set [1] (7.4 pH solution), the “half life in a 7.4 pH solution” value is 47 hours. In data set [2], the half-life in plasma came out at 0.35 h.

Take `Cc1cccc(Nc2ccccc2C(=O)OCCOC(=O)N2CCOCC2)c1C` [2-[(2,3-Dimethylphenyl)amino]-benzoic acid morpholinocarbonyloxyethyl ester]: the half-life in data set [1] (pH 1.0 solution, pH 1, 1.0 pH solution, read-out: half life in a 1.0 pH solution (converted)) is 7.6 h; in data set [1] (pH 7.4 solution, pH 7.4, 7.4 pH solution, read-out: half life in a 7.4 pH solution (converted)) it was 66 h; in the data set on plasma enzymes, 0.333 h.

Take `O=C(Oc1ccccc1C(=O)O)c1ccccc1O` [Salsalate, salsalate]: the “solubility at normal acidic gastric pH” value in data set [3] is “insoluble”.
